Earlier results on 1 substance are cited in patent publication US20050221324A1, “Genotoxicity analysis” (priority 2002, published 2005).

In the data set the test system is AL cells. Particulars: producing mainly chromosomal mutations; non-genotoxic carcinogens.

Consider arsenic, for which the “mutagenicity in AL cells” value is given as “quite strong mutagens”.
